Measured values taken from patent US20070254955A1, “Nail softener for use in deformed-nail corrective treatment or nail-structure modification, enclosure for external chemicals and method of correcting deformed nail” (priority 2003, published 2007).

Experiments:
[1] = system: ingrown nail; assay: Ingrown-nail correction with nail softener in enclosure plus superelastic alloy wire (Second Example, deep nail); format: in vivo; settings: reposition by action of superelastic alloy wire
Description: With reference to the drawings, an ingrown-nail correcting method using the enclosure according to one embodiment of the present invention will be described below. As mentioned above, the cases of ingrown nails include one case of a sufficiently grown nail, and another case of a deep nail. While the deformed-nail correcting method using the enclosure of the present invention can be applied to both the cases, the second example will be described in conjunction with one case where the method is applied to a deep nail. An emulsifying agent was first added to ammonium thioglycolate serving as a reducing agent to prepare a 5% (weight %) ammonium thioglycolate mail softener in the form of cream or paste. […] The through-hole P1c was formed to fix one of the ends of a superelastic alloy wire w (see the aforementioned Patent Publication). Further, four small holes P2 serving as anchoring holes of resin r for fixing the other end of the wire were formed in the other lateral side region n2 of the nail. One of the ends of the wire w is inserted into the central through-hole p1c. Then, the wire w was folded toward the other side region n2 or a flat region, and brought into close contact with the surface of the nail. A resin r was applied onto the curved region n1 to fix one end of the wire w. An ultra-fast cure type autopolymerizing resin (GC Unifast II: trade name of GC Co.) was used as the resin. […]

[2] = system: ingrown nail; assay: Deformed-nail corrective treatment with nail softener (First Example, sufficiently grown ingrown nail); format: in vivo; settings: nail repositioned by fingertips, immobilized with resin for one hour; FIG. 4
Description: With reference to the drawings, a deformed-nail correcting method using the nail softener according to one embodiment of the present invention will be described below. The cases of ingrown nails include one case of a sufficiently grown nail, and another case of a deep nail. While the deformed-nail correcting method using the nail softener of the present invention can be applied to both the cases, the first example will be described in conjunction with one case where the method is applied to a sufficiently grown nail. An emulsifying agent was first added to ammonium thioglycolate serving as a reducing agent to prepare a 5% (weight %) ammonium thioglycolate mail softener in the form of cream or paste. […] The number of the small through-hole may be changed according to the state of the nail, and may be, for example, two. The prepared nail softener was applied onto the entire surface of the nail at a thickness of about 5 mm, and left the nail untouched. After 25 minutes from the application of the nail softener to the nail, the state of the nail was checked. […] Thus, the nail softener was washed away and removed from the nail using a hot water. […] In order to maintain the corrected position, a resin 12 was attached onto the upper surface of the nail to close the small through-holes 10 formed in the front region of the nail (see FIG. 3). […]

SMILES	result of the corrective treatment (reposition of the ingrown nail) [1]	result of the corrective treatment (correction of the deformed nail) [2]
O=C(O)CS [thioglycolic acid]	substantially the same result	substantially the same result
N[C@@H](CS)C(=O)O [cysteine]	substantially the same result	substantially the same result
